Laboratory results as given in patent US20200216432A1, “SULFONAMIDE DERIVATIVES AS STAT3 INHIBITORS FOR THE TREATMENT OF PROLIFERATIVE DISEASES” (King's College London, priority 2017, published 2020).

Columns and labels:
[1] = biological target: unphosphorylated STAT3 monomer (uSTAT3) SH2 domain (Homo sapiens, UniProt P40763); experiment: Fluorescence polarisation assay for the inhibition of STAT3 dimerisation; assay type: binding; settings: 350 nM uSTAT3, 10 nM FAM-pYLPQTV, 100 μM ligand; average of triplicate
From the text: Fluorescence Polarisation Assay for the Inhibition of STAT3 Dimerisation
The compounds were subjected to an in vitro fluorescent polarisation (FP)-based primary PPI binding screen to assess their ability to inhibit STAT3 dimerisation by interacting with the SH2 domain. In this FP assay, the unphosphorylated STAT3 monomer (uSTAT3) and a surrogate peptide FAM-pYLPQTV were used to form a ‘pseudo-dimer’. The assay is based on the concept that the compounds were expected to displace the surrogate peptide from the uSTAT3 resulting in a fluorescent read out.
Specifically, for the FP assay, a black (CORNING™) 96 well plate was thoroughly washed with distilled water and allowed to dry. A 100 nM FAM-pYLPQTV working solution was prepared from 10 μM FAM-pYLPQTV stock solution (in DMSO) using PBS pH 7.4 Buffer. 10 μl FAM-pYLPQTV was added to 350 nM uSTAT3 protein, the final concentration of protein in each well, in 90 μl PBS buffer pH 7.4. The MP value of the surrogate dimer complex was measured using a fluorescent plate reader (Envision™, Perkin Elmer™, USA), which provided the base MP value. The inhibitor solution was then added to the well and the assay plate was placed on a shaker for 5 minutes. The MP value for each well was then measured again. A shift in fluorescent values was observed due to displacement of the fluorescently-labelled surrogate peptide by the inhibitors, and the average inhibition for each inhibitor could be calculated as described below:
Base MP value (X) for each well=MP value of Protein and Probe (350 nm STAT3+10 nM FAM-pYLPQTV)−MP value of free FAM-pYLPQTV
Inhibitor MP value (Y) for each well=MP value of Protein+Probe+Inhibitor (350 nm uSTAT3+10 nM FAM-pYLPQTV+2 μL Inhibitor)−MP value of free FAM-pYLPQTV with 2 μL DMSO
% inhibition by any ligand/peptide=(X−Y)/X*100
For comparison purpose, the % inhibition produced by 100 μM pYLKTKF was considered to be 100%, and the inhibition produced by different ligands was reported as relative to 100 μM pYLKTKF.
% Inhibition produced by 100 μM pYLKTKF=A
% Inhibition produced by 100 μM Ligand=B
Relative inhibition (%)=B/A*100
The experiment was carried out in triplicate, and average values were taken as the measure of PPI inhibition.

[2] = test system: A4 (STAT3-null) cancer cell line; experiment: MTT cell viability assay, A4; assay type: cell-based
From the text: (§1) MTT Cell viability assay with both MDA-MB-231 breast (STAT3-dependent) and A4 (STAT3-null) cancer cell lines.
(§2) After observing significant STAT3 dimerisation inhibitory activity in the preliminary FP assay, the target ligand and related fragments were progressed to an MTT cytotoxicity assay to evaluate in a STAT3-dependent tumour cell line (MDA MB 231, breast cancer) and a STAT3 null A4 cell line. It was anticipated that the compounds would show selective toxicity towards the STAT3-dependent MDA MB 231 cell line and would have lost activity in the STAT3 null A4 cell line if the mechanism of action was STAT3-mediated.
(§3) For each cell line, a total of 10,000 cells were seeded for 24 hours before addition of the inhibitors. The cells were grown in normal cell culture conditions at 37° C. under a 5% CO2 humidified atmosphere using an appropriate medium. The cell count was adjusted to 10^5 cells/ml, and 5,000-20,000 cells were added per well depending on the cell line. The cells were then incubated for 24 hours, and 1 μl aliquots of the inhibitors were added to the wells in triplicate. […] Absorbance was quantified by spectrophotometry at A=570 nm (Envision™ Plate Reader, PerkinElmer™, USA). IC50 values were calculated by a dose-response analysis using the Prism GraphPad Prism® software package.

[3] = test system: MDA-MB-231 breast (STAT3-dependent) cancer cell line; experiment: MTT cell viability assay, MDA-MB-231; assay type: cell-based, human; settings: for IC50: MTT, 48 hours exposure (table title); for Selectivity ratio: STAT3-null A4 versus STAT3-dependent MDA-MB-231
From the text: as §1, §2, §3

[4] = 48 hours exposure (table title)

unphosphorylated STAT3 monomer (uSTAT3) SH2 domain, sequence (P40763 whole entry, the tested form may be a part): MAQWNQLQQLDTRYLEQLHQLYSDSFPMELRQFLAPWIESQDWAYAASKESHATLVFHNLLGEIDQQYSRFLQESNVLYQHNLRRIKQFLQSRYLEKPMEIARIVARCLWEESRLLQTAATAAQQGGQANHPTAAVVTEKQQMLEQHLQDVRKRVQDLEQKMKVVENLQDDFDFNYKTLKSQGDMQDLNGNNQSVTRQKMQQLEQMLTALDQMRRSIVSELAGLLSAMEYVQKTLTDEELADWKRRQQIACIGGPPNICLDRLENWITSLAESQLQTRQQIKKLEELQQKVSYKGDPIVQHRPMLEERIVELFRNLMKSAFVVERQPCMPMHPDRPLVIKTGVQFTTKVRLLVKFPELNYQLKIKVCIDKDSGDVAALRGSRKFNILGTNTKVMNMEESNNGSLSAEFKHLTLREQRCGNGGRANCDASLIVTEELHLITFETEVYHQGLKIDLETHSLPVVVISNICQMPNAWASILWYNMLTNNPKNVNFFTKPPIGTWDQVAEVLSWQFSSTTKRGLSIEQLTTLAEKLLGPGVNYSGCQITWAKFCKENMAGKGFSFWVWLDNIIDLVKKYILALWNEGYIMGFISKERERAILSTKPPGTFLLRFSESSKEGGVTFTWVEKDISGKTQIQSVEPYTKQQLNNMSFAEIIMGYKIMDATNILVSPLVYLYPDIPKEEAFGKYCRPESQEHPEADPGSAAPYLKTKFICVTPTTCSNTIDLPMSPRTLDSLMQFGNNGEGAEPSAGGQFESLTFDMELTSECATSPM

Compound | inhibition at 100 µM [1] [%] | IC50 ([2]; exposure (table title)) [µM] | IC50 ([3]; Homo sapiens, MDA-MB-231, 48 h) [µM] | Selectivity ratio [3] | % Inhibition [1] [%] | IC50 [2, 4] [µM] | IC50 [3] [µM]
COC(=O)c1ccc(N(C)S(=O)(=O)c2cc(C(=O)Nc3cccc(N4CCCCC4)c3)sc2-c2ccc(N3CCCCC3)cc2)cc1 [Compound 19, methyl 4-((N-methyl-2-(4-(piperidin-1-yl)phenyl)-5-((3-(piperidin-1-yl)phenyl)carbamoyl)thiophene)-3-sulfonamido)benzoate] | 43.7 | 34.6 | 3.2 | 10.81 | – | – | –
COC(=O)c1ccc(N(C)S(=O)(=O)c2cc(C(=O)Nc3ccc4c(ccn4Cc4ccccc4)c3)sc2-c2ccc(N3CCCCC3)cc2)cc1 [Compound 20, methyl 4-((5-((1-benzyl-1H-indol-5-yl)carbamoyl)-N-methyl-2-(4-(piperidin-1-yl)phenyl)thiophene)-3-sulfonamido)benzoate] | 35.6 | 58.8 | 10.5 | 5.62 | – | – | –
COC(=O)c1ccc(N(C)S(=O)(=O)c2cc(C(=O)Nc3ccc(N4CCCCC4)cc3)sc2Br)cc1 [Compound 21, methyl 4-((2-bromo-N-methyl-5-((4-(piperidin-1-yl)phenyl)carbamoyl)thiophene)-3-sulfonamido)benzoate] | 22.7 | 64.7 | 23.5 | 2.75 | – | – | –
COC(=O)c1ccc(N(C)S(=O)(=O)c2cc(C(=O)Nc3cccc(N4CCOCC4)c3)sc2Br)cc1 [Compound 22, methyl 4-((2-bromo-N-methyl-5-((3-morpholinophenyl)carbamoyl)thiophene)-3-sulfonamido)benzoate] | 11.7 | 73.5 | 34.4 | 2.13 | – | – | –
COC(=O)c1ccc(N(C)S(=O)(=O)c2cc(C(=O)Nc3ccc(CN4CCOCC4)cc3)sc2Br)cc1 [Compound 23, methyl 4-((2-bromo-N-methyl-5-((4-(morpholinomethyl)phenyl)carbamoyl)thiophene)-3-sulfonamido)benzoate] | 31.3 | 54.3 | 12.5 | 4.34 | – | – | –
COC(=O)c1ccc(N(C)S(=O)(=O)c2cc(C(=O)NCc3ccc(N4CCOCC4)cc3)sc2Br)cc1 [Compound 24, methyl 4-((2-bromo-N-methyl-5-((4-morpholinobenzyl)carbamoyl)thiophene)-3-sulfonamido)benzoate] | 9.42 | 33.2 | 34.5 | 0.96 | – | – | –
COC(=O)c1ccc(N(C)S(=O)(=O)c2cc(C(=O)NCc3ccc(OCCN4CCOCC4)cc3)sc2Br)cc1 [Compound 25, methyl 4-((2-bromo-N-methyl-5-((4-(2-morpholinoethoxy)benzyl)carbamoyl)thiophene)-3-sulfonamido)benzoate] | – | – | – | – | 49.62 | 43.6 | 3.6
COC(=O)c1ccc(N(C)S(=O)(=O)c2cc(C(=O)NCc3ccc(N4CCCCC4)cc3)sc2Br)cc1 [Compound 26, methyl 4-((2-bromo-N-methyl-5-((4-(piperidin-1-yl)benzyl)carbamoyl)thiophene)-3-sulfonamido)benzoate] | 8.24 | 25.8 | 14.5 | 1.77 | – | – | –
COC(=O)c1ccc(NC(=O)c2cc(S(=O)(=O)N(C)c3ccc(C(=O)OC)cc3)c(Br)s2)cc1 [Compound 27, methyl 4-(5-bromo-4-(N-(4-(methoxycarbonyl)phenyl)-N-methylsulfamoyl)thiophene-2-carboxamido)benzoate] | 20.3 | 58.3 | 8.7 | 6.70 | – | – | –
COC(=O)c1ccc(N(C)S(=O)(=O)c2cc(C(=O)Nc3cccc(N4CCCCC4)c3)sc2Br)cc1 [Compound 28, methyl 4-((2-bromo-N-methyl-5-((3-(piperidin-1-yl)phenyl)carbamoyl)thiophene)-3-sulfonamido)benzoate] | 51.3 | 42.7 | 6.5 | 6.56 | – | – | –
COC(=O)c1ccc(N(C)S(=O)(=O)c2cc(C(=O)Nc3ccc(OCCN4CCOCC4)cc3)sc2Br)cc1 [Compound 29, methyl 4-((2-bromo-N-methyl-5-((4-(2-morpholinoethoxy)phenyl)carbamoyl)thiophene)-3-sulfonamido)benzoate] | – | – | – | – | 42.90 | 53.6 | 5.8
COC(=O)c1ccc(N(C)S(=O)(=O)c2cc(C(=O)Nc3ccc(N4CCOCC4)nc3)sc2Br)cc1 [Compound 30, methyl 4-((2-bromo-N-methyl-5-((6-morpholinopyridin-3-yl)carbamoyl)thiophene)-3-sulfonamido)benzoate] | 19.5 | 82.3 | 24.6 | 3.34 | – | – | –
COC(=O)c1ccc(N(C)S(=O)(=O)c2cc(C(=O)NCc3ccc(CN4CCOCC4)cc3)sc2Br)cc1 [Compound 31, methyl 4-((2-bromo-N-methyl-5-((4-(morpholinomethyl)benzyl)carbamoyl)thiophene)-3-sulfonamido)benzoate] | 27.3 | 24.7 | 32.5 | 0.76 | – | – | –
COC(=O)c1ccc(N(C)S(=O)(=O)c2cc(C(=O)NCc3ccc(N4CCN(C)CC4)cc3)sc2Br)cc1 [Compound 32, methyl 4-((2-bromo-N-methyl-5-((4-(4-methylpiperazin-1-yl)benzyl)carbamoyl)thiophene)-3-sulfonamido)benzoate] | 6.18 | 74.5 | 7.65 | 9.73 | – | – | –
COC(=O)c1ccc(N(C)S(=O)(=O)c2cc(C(=O)NCc3ccc(CN4CCCCC4)cc3)sc2Br)cc1 [Compound 33, methyl 4-((2-bromo-N-methyl-5-((4-(piperidin-1-ylmethyl)benzyl)carbamoyl)thiophene)-3-sulfonamido)benzoate] | 42.3 | 94.2 | 4.45 | 21.16 | – | – | –
COC(=O)c1ccc(N(C)S(=O)(=O)c2cc(C(=O)Nc3ccc(Cc4nc5cc(C)ccc5[nH]4)cc3)sc2Br)cc1 [Compound 34, methyl 4-((2-bromo-N-methyl-5-((4-((5-methyl-1H-benzo[d]imidazol-2-yl)methyl)phenyl)carbamoyl)thiophene)-3-sulfonamido)benzoate] | 35.4 | 65.4 | 7.32 | 8.93 | – | – | –
COC(=O)c1ccc(N(C)S(=O)(=O)c2cc(C(=O)Nc3ccc4[nH]c(Cc5ccccc5)nc4c3)sc2Br)cc1 [Compound 35, methyl 4-((5-((2-benzyl-1H-benzo[d]imidazol-5-yl)carbamoyl)-2-bromo-N-methylthiophene)-3-sulfonamido)benzoate] | 33.3 | 38.7 | 4.45 | 8.69 | – | – | –
COC(=O)c1ccc(N(C)S(=O)(=O)c2cc(C(=O)Nc3ccc4c(ccn4C)c3)sc2Br)cc1 [Compound 36, methyl 4-((2-bromo-N-methyl-5-((1-methyl-1H-indol-5-yl)carbamoyl)thiophene)-3-sulfonamido)benzoate] | 29.1 | 45.3 | 7.8 | 5.80 | – | – | –
